In ChEMBL document CHEMBL1147908, “Preparation of novel anthranilic acids as antibacterial agents. Extensive evaluation of alternative amide bioisosteres connecting the A- and the B-rings” (2007):
In brackets after ≈: the same amount, converted by molar mass.

Columns and labels:
Format in all cases: functional
Staphylococcus aureus = experiment: Antibacterial activity against Staphylococcus aureus UC 9218
Enterococcus faecalis = experiment: Antibacterial activity against Enterococcus faecalis UC 9217
[1] = system: Staphylococcus epidermidis; experiment: Antibacterial activity against Staphylococcus epidermidis UC 12084
Streptococcus pneumoniae = experiment: Antibacterial activity against Streptococcus pneumoniae UC 9912
Haemophilus influenzae = experiment: Antibacterial activity against Haemophilus influenzae 30063

SMILES | MIC (Staphylococcus aureus) | MIC (Enterococcus faecalis) | MIC [1] | MIC (Streptococcus pneumoniae) | MIC (Haemophilus influenzae)
N#Cc1ccc([C@H]2C[C@@H]2c2cccc(S(=O)(=O)N3CCc4cc(Cl)ccc43)c2)c(C(=O)O)c1 | 4 µg/mL (≈ 8.35 µM) | > 128 µg/mL | 8 µg/mL (≈ 16.7 µM) | > 128 µg/mL | 16 µg/mL (≈ 33.4 µM)
O=C(O)c1cc(Cl)ccc1CCc1ccc(S(=O)(=O)N2CCc3cc(Cl)ccc32)cc1 | 32 µg/mL (≈ 67.2 µM) | > 128 µg/mL | 32 µg/mL (≈ 67.2 µM) | 32 µg/mL (≈ 67.2 µM) | > 128 µg/mL
O=C(O)c1cc(Br)ccc1-c1nnc(-c2ccccc2)[nH]1 | > 128 µg/mL | > 128 µg/mL | > 128 µg/mL | > 128 µg/mL | > 128 µg/mL
O=C(Nc1ccc(Br)cc1C(=O)O)c1ccc(S(=O)(=O)N2CCc3cc(Cl)ccc32)cc1 | 0.5 µg/mL (≈ 0.933 µM) | 32 µg/mL (≈ 59.7 µM) | 4 µg/mL (≈ 7.47 µM) | 4 µg/mL (≈ 7.47 µM) | 128 µg/mL (≈ 239 µM)
N#Cc1ccc(/C=C/c2cccc(S(=O)(=O)N3CCc4cc(Cl)ccc43)c2)c(C(=O)O)c1 | 0.25 µg/mL (≈ 0.538 µM) | 128 µg/mL (≈ 275 µM) | 0.5 µg/mL (≈ 1.08 µM) | > 128 µg/mL | > 128 µg/mL
Cc1ccc(S(=O)(=O)Nc2ccc(-c3ccc(Cl)cc3)c(C(=O)O)c2)cc1 | > 128 µg/mL | > 128 µg/mL | 64 µg/mL (≈ 159 µM) | > 128 µg/mL | > 128 µg/mL
O=C(O)c1cc(Br)ccc1-c1nnc(-c2ccccc2)o1 | > 128 µg/mL | > 128 µg/mL | > 128 µg/mL | > 128 µg/mL | > 128 µg/mL
O=C(O)c1cc(Cl)ccc1-c1ccc(S(=O)(=O)N2CCc3cc(Cl)ccc32)cc1 | 128 µg/mL (≈ 286 µM) | > 128 µg/mL | 128 µg/mL (≈ 286 µM) | > 128 µg/mL | > 128 µg/mL
N#Cc1ccc(C=Cc2cccc(S(=O)(=O)N3CCc4cc(Cl)ccc43)c2)c(C(=O)O)c1 | 16 µg/mL (≈ 34.4 µM) | > 128 µg/mL | 32 µg/mL (≈ 68.8 µM) | 64 µg/mL (≈ 138 µM) | > 128 µg/mL
N#Cc1ccc(NC(=S)c2cccc(S(=O)(=O)N3CCc4cc(Cl)ccc43)c2)c(C(=O)O)c1 | 0.125 µg/mL (≈ 0.251 µM) | 32 µg/mL (≈ 64.3 µM) | 0.125 µg/mL (≈ 0.251 µM) | 16 µg/mL (≈ 32.1 µM) | 64 µg/mL (≈ 129 µM)
